How the values were obtained:
[1] = tested on: splenocytes from C57BL/6 mice; experiment: Cytotoxicity of CFZ on splenocytes, bolus-pulse vs low-extended; type: cell-based; conditions: 24 h total
Protocol: To estimate whether the sustained supply of CFZ is beneficial to sparing immune cells in the tumor microenvironment, we tested the cytotoxic effect of CFZ on splenocytes in two treatment regimens (FIG. 3A): a pulse treatment of bolus dose (bolus-pulse) and an extended treatment of low dose (low-extended), where bolus-pulse indicates incubation of cells in different CFZ concentrations for 2.4 h followed by washout and incubation in drug-free medium for additional 21.6 h making the total incubation time of 24 h, and low-extended indicates incubating cells in 1/10th CFZ concentrations for 24 h. The bolus-pulse regimen represents unformulated CFZ that is immediately available to the tumor upon intratumoral injection but rapidly diffuses to the circulation, whereas the low-extended regimen mimics the sustained release of CFZ from CFZ-pTA-alb over a prolonged period of time. Splenocytes freshly harvested from C57BL/6 mice were used as a surrogate for immune cells, as the spleen is the largest secondary lymphoid organ containing 25% of total lymphocytes^34, where B cells and T cells constitute 45-50% and 30-35%, respectively^35.
The cytotoxicity of CFZ was also measured on splenocytes. […] Cell viability was measured as described above.

BMDCs [2] = experiment: BMDC activation after coculture with pretreated B16F10 cells (CD40, CD86); type: cell-based, C57BL/6 mice; conditions: B16F10 pretreated 24 h, 200 nM CFZ-equivalent
Protocol: Bone marrow cells were collected from healthy male C57BL/6 as reported previously^71. Mice at the age of 6-8 weeks were sacrificed using CO2 asphyxiation. Using a syringe, the cavities of femur bones were flushed with RPMI 1640 medium containing penicillin/streptomycin. The collected bone marrow was pipetted several times and passed through a 40 μm cell strainer to obtain single cell suspension. The cells were collected by centrifugation at 500 rcf for 8 min, treated with ACK buffer, rinsed, and suspended in IMDM medium supplemented with 10% FBS, penicillin/streptomycin, 20 ng/mL GM-CSF, and 10 mM β-mercaptoethanol at a density of 2×10^6 cells per 10 mL to differentiate into dendritic cells (DCs). Additional medium was supplemented three days later, and the floating and loosely adherent cells were collected by centrifugation on day 6. The DC phenotype was confirmed by CD11c staining. […] The stained cells were analyzed by flow cytometry (Accuri C6, BD Biosciences, San Jose, Calif., USA). Fluorescence-minus-one (FMO) controls were used for compensation and gating. The extent of phagocytosis was expressed as the percentage of DiI^+CD11c^+ cells per total CD11c^+ cells. The DC activation was assessed by CD11c^+CD40^+ or CD11c^+CD86^+ per total CD11c^+ cells.

plasma protein = conditions: cited from earlier work
BMDCs [3] = experiment: Phagocytosis of pretreated DiI-labeled B16F10 cells by BMDCs; type: cell-based, C57BL/6 mice
B16F10 cells = experiment: Cytotoxicity by MTT assay in B16F10 cells; type: cell-based, murine; conditions: 24 h total
Protocol: Bolus-pulse: Cells were incubated with CFZ-DMSO at different CFZ concentrations for 2.4 h then washed and incubated in drug-free medium for additional 21.6 h making the total incubation time of 24 h. Low-extended: Cells were incubated with at 1/10th CFZ concentrations for 24 h. Cell viability was measured by the MTT assay at the end of 24 h. % cell viability was calculated by normalizing to the viability of control cells treated with the equivalent amount of vehicle for the same period of time.
B16F10 (derived from murine melanoma; ATCC, Manassas, Va., USA) or HCC-1937 (derived from human triple negative breast cancer; ATCC, Manassas, Va., USA) were grown in RPMI 1640 or DMEM medium, respectively, supplemented with 10% FBS and penicillin (100 IU/mL) and streptomycin (100 μg/mL). Cells were seeded in a 96 well plate at a density of 4,000 cells per well. After 24 h incubation, the culture medium was replaced with fresh medium containing CFZ (as a stock solution in DMSO), CFZ-pTA or CFZ-pTA-alb. […] The stop/solubilizing solution was added to dissolve formazan crystals, and the absorbance was read at the wavelength of 562 nm by the SpectraMax M3 microplate reader.

## CC(C)C[C@H](NC(=O)[C@H](CCc1ccccc1)NC(=O)CN1CCOCC1)C(=O)N[C@@H](Cc1ccccc1)C(=O)N[C@@H](CC(C)C)C(=O)[C@@]1(C)CO1 [CFZ, Carfilzomib]
[1]
  sensitivity to bolus-pulse vs low-extended regimen: less sensitive to the low-extended regimen than to the bolus-pulse regimen
BMDCs [2]
  CD40 expression on CD11c+ BMDCs: increased the expression of the two activation markers
  CD86 expression on CD11c+ BMDCs: increased the expression of the two activation markers
Plasma protein
  plasma protein binding: 97.6-98.2%
BMDCs [3]; 10 μM CFZ equivalent pretreatment 24 h, coculture 4 or 24 h
  BMDC uptake of DiI+ B16F10 cells vs untreated B16F10 cells: greater extents of DiI^+CD11c^+ cells per total CD11c^+ cells
BMDCs [3]; 4° C.
  BMDC uptake of pretreated B16F10 cells at 4° C.: diminished
BMDCs [3]; Pearson's correlation coefficient of signal colocalization
  BMDC uptake of DiI+ cells/fragments by confocal microscopy: increased
B16F10 cells
  sensitivity to bolus-pulse vs low-extended regimen: equally sensitive to the two regimens

From patent US20220401374A1, “COMPOSITIONS AND METHODS FOR CANCER TREATMENT BY ENHANCING ANTITUMOR IMMUNITY USING TANNIC ACID-BASED NANOCAPSULES” (Purdue Research Foundation, priority 2019, published 2022)
